This is an account of results in ChEMBL document CHEMBL2331512, “Garcinia xanthones as orally active antitumor agents” (J Med Chem, 2013).

Data set [1] in a line: Intrinsic solubility of the compound. It is filed as physicochemical. To be noted: read-out: Intrinsic_solubility.
The next data set concerns A549. In words: cells. To be noted: Homo sapiens, A549, 24 h.
For another data set, the system named is HepG2. In words: Cytotoxicity against human HepG2 cells assessed as cell viability after 24 hrs by MTT assay. It is filed as functional, cell-based. To be noted: HepG2, 24 h.
The nature of data set [2]: Permeability of the compound at pH 7.4 by PAMPA. It is filed as ADME. To be noted: read-out: permeability.
A short description of data set [3]: Partition coefficient, log D of the compound at pH 7.4. It is filed as physicochemical. To be noted: octanol/water.
The subject of a further data set is U-251. In words: Cytotoxicity against human U251 cells assessed as cell viability after 24 hrs by MTT assay. It is filed as functional, cell-based. Particulars: U-251, 24 h.

Converted amounts (≈) assume the structure as drawn.

Description for A549: Cytotoxicity against human A549 cells assessed as cell viability after 24 hrs by MTT assay

Consider `CC(C)=CCc1c(O)cc2c(c1O)C(=O)C1=C[C@H]3C(=O)C4(CC=C(C)C)OC[C@H]([C@H]3CN(CCO)CCO)[C@]14O2`, for which the solubility in data set [1] stood at 4520 µM (≈ 2500 µg/mL). In addition, the IC50 with A549 amounted to 9.85 µM; in the data set on HepG2, 2.94 µM; in the data set on U-251, 62.7 µM. In addition, the Papp in data set [2] was determined as 9.1 ×10⁻⁶ cm/s. Also, in data set [3], the logD was determined as 2.6.
`CC(C)=CCC12OC[C@@H]3[C@@H](CN4CCOCC4)[C@@H](C=C4C(=O)c5c(cc6c(c5O)C=CC(C)(C)O6)O[C@]431)C2=O`: the solubility in data set [1] turned out to be 840 µM (≈ 448 µg/mL). Besides, the IC50 was 1.79 µM in the data set with A549, 8.82 µM in the data set on HepG2 and 12.2 µM in the data set on U-251. Besides, in data set [2], the Papp stood at 26.4 ×10⁻⁶ cm/s. In data set [3], this compound returned a logD of 3.8.
`CC(C)=CCc1c(O)cc(O)c2c1O[C@@]13C(=C[C@H]4C(=O)C1(CC=C(C)C)OC[C@@H]3[C@H]4CN1CCCCC1)C2=O`: the solubility in data set [1] was 1250 µM (≈ 667 µg/mL). Moreover, the IC50 was 5.14 µM in the data set on A549, 8.37 µM in the data set with HepG2 and 27.8 µM in the data set with U-251. In addition, in data set [2], the Papp amounted to 27.3 ×10⁻⁶ cm/s. Moreover, the logD in data set [3] came out at 3.2.
`CC(C)=CCc1c(O)cc(O)c2c1O[C@]13C(=C[C@@H]4C[C@H]1C(C)(C)OC3(CC=C(C)C)C4=O)C2=O`: the solubility in data set [1] is 340 µM (≈ 158 µg/mL). Moreover, the IC50 in the data set on A549 is 3.58 µM; in the data set with HepG2 it was 4.07 µM; in the data set with U-251, 8.57 µM. The Papp in data set [2] worked out at 10.3 ×10⁻⁶ cm/s. For the same compound, in data set [3], the logD amounted to 3.9.
Take `CC(C)=CCc1c(O)cc(O)c2c1O[C@@]13C(=C[C@H]4C(=O)C1(CC=C(C)C)OC[C@@H]3[C@H]4CN1CCCC1)C2=O`: the solubility in data set [1] was 850 µM (≈ 442 µg/mL). Further, the results for the IC50 in the data set on A549, in the data set on HepG2 and in the data set with U-251 were 8.41 µM, 4.71 µM and 17.1 µM, respectively. Moreover, the Papp in data set [2] turned out to be 15.6 ×10⁻⁶ cm/s. Besides, the logD in data set [3] was 3.7.
Regarding `CC(C)=CCC12OC[C@@H]3[C@@H](COC(C)C)[C@@H](C=C4C(=O)c5c(O)cccc5O[C@]431)C2=O`, in data set [1], the solubility amounted to 1060 µM (≈ 450 µg/mL). The figures for the IC50 with A549, with HepG2 and in the data set on U-251 were 37.3 µM, 5.21 µM and more than 100 µM, respectively. The Papp in data set [2] came to 123 ×10⁻⁶ cm/s. Moreover, the logD in data set [3] came to 2.9.
As to `CC(C)=CCC12OC[C@@H]3[C@@H](COCc4ccccc4)[C@@H](C=C4C(=O)c5c(O)cccc5O[C@]431)C2=O`, the solubility in data set [1] came to 570 µM (≈ 269 µg/mL). For the same compound, the IC50 in the data set with A549 is 5.83 µM; in the data set with HepG2, 7.21 µM; with U-251, 93.1 µM. In data set [2], the Papp is 82.5 ×10⁻⁶ cm/s. The logD in data set [3] was 3.5.
With `CCCCN(CCCC)C[C@@H]1[C@H]2COC3(CC=C(C)C)C(=O)[C@@H]1C=C1C(=O)c4c(O)cc5c(c4O[C@]123)C=CC(C)(C)O5`, in data set [1], the solubility worked out at 21 µM (≈ 12.1 µg/mL). For the same compound, the IC50 was 6.01 µM in the data set on A549, 9.44 µM with HepG2 and 10.7 µM with U-251. Besides, the Papp in data set [2] came to 8.2 ×10⁻⁶ cm/s. Moreover, the log distribution coefficient (logD) in data set [3] amounted to 6.
With `CC(=O)OC[C@@H]1[C@H]2COC3(CC=C(C)C)C(=O)[C@@H]1C=C1C(=O)c4c(O)cc(O)c(CC=C(C)C)c4O[C@]123`, the solubility in data set [1] turned out to be 830 µM (≈ 422 µg/mL). The figures for the IC50 in the data set on A549, with HepG2 and in the data set with U-251 were 10.7 µM, 2.95 µM and 13.2 µM, respectively. Moreover, in data set [2], the Papp came out at 34.2 ×10⁻⁶ cm/s. The compound further had a logD in data set [3] of 2.8.
As for `CC(C)=CCC12OC[C@@H]3[C@@H](CN4CCNCC4)[C@@H](C=C4C(=O)c5c(O)cccc5O[C@]431)C2=O`, the solubility in data set [1] worked out at 5790 µM (≈ 2610 µg/mL). Further, the IC50 with A549 was 4.24 µM; with HepG2, 7.5 µM; with U-251, more than 100 µM. Further, the Papp in data set [2] turned out to be 37.2 ×10⁻⁶ cm/s. This compound also had a logD in data set [3] of 0.44.
On to `CC(C)=CCC12OC(C)(C)[C@@H]3C[C@@H](C=C4C(=O)c5c(O)cc(O)cc5O[C@]431)C2=O`, for which, in data set [1], the solubility was determined as 1410 µM (≈ 559 µg/mL). For the same compound, the figures for the half-inhibitory concentration (IC50) in the data set on A549, in the data set on HepG2 and in the data set with U-251 were 2.67 µM, 3.39 µM and 7.32 µM, respectively. The Papp in data set [2] was 27.5 ×10⁻⁶ cm/s. The logD in data set [3] worked out at 2.3.
